System: 624824-186-R-J2-PDC multicell spheroids, viability
Experiment: Anticancer human tumor 624824-186-R-J2-PDC patient-derived colon adenocarcinoma cell line growth inhibition [PI3K]
Conditions: for IC50: curve of first compound; for viability, T/C: stronger effect = lower value
In short: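 Combination activity was assessed by viability in multicellular tumor spheroids carrying HUVEC and MSC components. Agents were tested with PI3K inhibitors from a Cmax-based top dose (or 10 microM) downward in half-log increments.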
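Note: spheroids exposed to agents for 7 days before viability read.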
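Throughout, for viability, T/C: 100% = DMSO vehicle treated spheroids.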

`CC(=O)c1c(C)c2cnc(Nc3ccc(N4CCNCC4)cn3)nc2n(C2CCCC2)c1=O` + CC(Nc1ncnc2nc[nH]c12)c1cc2cccc(Cl)c2c(=O)n1-c1ccccc1 was tested, and the IC50 (second compound 0.0316 µM) was greater than 100 nM, the IC50 (second compound 0.1 µM) was greater than 100 nM and the IC50 (second compound 0.316 µM) was greater than 100 nM. The IC50 (second compound 1 µM) was greater than 100 nM, the IC50 (second compound 3.16 µM) was greater than 100 nM and the IC50 (second compound 10 µM) was greater than 100 nM. For the same compound, the viability, T/C (second compound 0.0316 µM, first compound 0.000316 µM) was 78.8%, the viability, T/C (second compound 0.0316 µM, first compound 0.001 µM) was 118% and the viability, T/C (second compound 0.0316 µM, first compound 0.00316 µM) was 98.7%. It also gave a viability, T/C (second compound 0.0316 µM, first compound 0.01 µM) of 98.5%, a viability, T/C (second compound 0.0316 µM, first compound 0.0316 µM) of 80.5% and a viability, T/C (second compound 0.0316 µM, first compound 0.1 µM) of 86.1%. It also gave a viability, T/C (second compound 0.1 µM, first compound 0.000316 µM) of 107%, a viability, T/C (second compound 0.1 µM, first compound 0.001 µM) of 85.2% and a viability, T/C (second compound 0.1 µM, first compound 0.00316 µM) of 84.4%. For the same compound, the viability, T/C (second compound 0.1 µM, first compound 0.01 µM) was 79.9%, the viability, T/C (second compound 0.1 µM, first compound 0.0316 µM) was 90% and the viability, T/C (second compound 0.1 µM, first compound 0.1 µM) was 93.5%. For the same compound, the viability, T/C (second compound 0.316 µM, first compound 0.000316 µM) was 121%, the viability, T/C (second compound 0.316 µM, first compound 0.001 µM) was 134% and the viability, T/C (second compound 0.316 µM, first compound 0.00316 µM) was 79.8%. For the same compound, the viability, T/C (second compound 0.316 µM, first compound 0.01 µM) was 77.5%, the viability, T/C (second compound 0.316 µM, first compound 0.0316 µM) was 78.2% and the viability, T/C (second compound 0.316 µM, first compound 0.1 µM) was 93%. It also gave a viability, T/C (second compound 1 µM, first compound 0.000316 µM) of 111%, a viability, T/C (second compound 1 µM, first compound 0.001 µM) of 96.6% and a viability, T/C (second compound 1 µM, first compound 0.00316 µM) of 89.5%. The viability, T/C (second compound 1 µM, first compound 0.01 µM) was 108%, the viability, T/C (second compound 1 µM, first compound 0.0316 µM) was 88.6% and the viability, T/C (second compound 1 µM, first compound 0.1 µM) was 92.6%. The viability, T/C (second compound 3.16 µM, first compound 0.000316 µM) was 98.8%, the viability, T/C (second compound 3.16 µM, first compound 0.001 µM) was 83.6% and the viability, T/C (second compound 3.16 µM, first compound 0.00316 µM) was 91.9%. The viability, T/C (second compound 3.16 µM, first compound 0.01 µM) was 111%, the viability, T/C (second compound 3.16 µM, first compound 0.0316 µM) was 88.5% and the viability, T/C (second compound 3.16 µM, first compound 0.1 µM) was 84%. The viability, T/C (second compound 10 µM, first compound 0.000316 µM) was 112%, the viability, T/C (second compound 10 µM, first compound 0.001 µM) was 110% and the viability, T/C (second compound 10 µM, first compound 0.00316 µM) was 107%. For the same compound, the viability, T/C (second compound 10 µM, first compound 0.01 µM) was 96.3%, the viability, T/C (second compound 10 µM, first compound 0.0316 µM) was 92.4% and the viability, T/C (second compound 10 µM, first compound 0.1 µM) was 94%.

— PubChem BioAssay AID1963975 (Molecular Pharmacology Branch, DTP, NCI, 2024)
